# Measured values from ChEMBL document CHEMBL1133160, “Molecular modeling of the aldose reductase-inhibitor complex based on the X-ray crystal structure and studies with single-site-directed mutants” (J Med Chem, 2000).
# Key:
# [1] = molecular target: Aldo-keto reductase family 1 member B1 (Homo sapiens, UniProt P15121); assay: Inhibitory Activity against Human recombinant Aldose Reductase (wild type)
# [2] = Inhibitory Activity ratio (IC50 ratio) calculated by Human recombinant aldose reductase wild type against Mutant Aldose reductase (W111A)
# [3] = Inhibitory Activity ratio (IC50 ratio) calculated by Human recombinant aldose reductase wild type against Mutant Aldose reductase (W111Y).
# [4] = Inhibitory Activity ratio (IC50 ratio) calculated by Human recombinant aldose reductase wild type against Mutant Aldose reductase (W20A).
# [5] = Inhibitory Activity ratio (IC50 ratio) calculated by Human recombinant aldose reductase wild type against Mutant Aldose reductase (W20Y)
SMILES,IC50 [1],Ratio [2],Ratio [3],Ratio [4],Ratio [5]
O=C(O)CC1C(=O)N(Cc2ccc(Br)cc2F)C(=O)c2ccc(F)cc21 (stereo not given),227 nM,120,193,311,21
CN1C(=O)c2ccc(Cl)cc2C2(CC(=O)NC2=O)C1=O (stereo not given),78.2 nM,> 1280,324,1070,1.5
O=C1CC2(C(=O)N1)C(=O)N(Cc1nc3cc(C(F)(F)F)ccc3s1)C(=O)c1ccc(F)cc12 (stereo not given),144 nM,19,2,1,0.1
CN1C(=O)c2ccc(F)cc2C2(CC(=O)NC2=O)C1=O (stereo not given),73.2 nM,2730,773,1670,3

# Compounds with a lower IC50 [1], results first:
IC50 [1],Ratio [2],Ratio [3],Ratio [4],Ratio [5],SMILES
54.7 nM,781,1960,9140,48,O=C1NC(=O)C2(N1)c1cc(F)ccc1-c1ccc(F)cc12
42.4 nM,786,12,448,2.5,O=C(O)Cn1c(=O)n(Cc2ccc(Br)cc2F)c(=O)c2ccc(Cl)cc21 [ZENARESTAT]
66.5 nM,1770,58,1770,47,O=C(O)Cc1nn(Cc2ccc(Br)cc2F)c(=O)c2ccccc12 [PONALRESTAT]
